Legend:
[1] = tested on: normal NK cells expanded with K562-aAPC; assay: percent inhibition of viability; higher = more inhibition; settings: 72 h, IL-2 2.5 ng/mL
Method: (§1)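 Drug sensitivity and resistance testing on K562-aAPC-expanded normal NK cells: 5 concentrations (10-fold steps over a 10,000-fold range), 72 h at 37 °C, viability by CellTiter-Glo normalised to DMSO and benzethonium chloride controls; DSS from the fitted curve.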

DERL-7 (IL-2 2.5 ng/mL) [2] = assay: drug sensitivity score (DSS) (DSS units); higher = more sensitive; extreme values may be limits of the assay; settings: 72 h
IMC-1 (IL-2 20 ng/mL) [3] = assay: as above; settings: 72 h
KAI3 (IL-2 2.5 ng/mL) [4] = assay: as above; settings: 72 h
SNK-6 (IL-2 2.5 ng/mL) [5] = assay: as above; settings: 72 h
[6] = tested on: normal primary NK cells, pool 2 (3 donors) (IL-2 2.5 ng/mL); assay: as above; settings: 72 h
NK-92 (IL-2 2.5 ng/mL) [7] = assay: as above; settings: 72 h
YT (IL-2 2.5 ng/mL) [8] = assay: as above; settings: 72 h
[9] = tested on: normal primary NK cells, pool 1 (3 donors) (IL-2 2.5 ng/mL); assay: as above; settings: 72 h
NKL (IL-2 2.5 ng/mL) [10] = assay: as above; settings: 72 h
NK-YS (IL-2 2.5 ng/mL) [11] = assay: as above; settings: 72 h
[12] = tested on: normal primary NK cells, pool 3 (3 donors) (IL-2 2.5 ng/mL); assay: as above; settings: 72 h
[13] = tested on: normal primary NK cells, pool 1 (3 donors), resting (IL-2 0 ng/mL); assay: as above; settings: 72 h
KHYG-1 (IL-2 2.5 ng/mL) [14] = assay: as above; settings: 72 h
DERL-7 (IL-2 2.5 ng/mL) [15] = assay: percent inhibition of viability; higher = more inhibition; settings: 72 h
IMC-1 (IL-2 20 ng/mL) [16] = assay: as above; settings: 72 h
KAI3 (IL-2 2.5 ng/mL) [17] = assay: as above; settings: 72 h
SNK-6 (IL-2 2.5 ng/mL) [18] = assay: as above; settings: 72 h
[19] = tested on: normal primary NK cells, pool 2 (3 donors) (IL-2 2.5 ng/mL); assay: as above; settings: 72 h
NK-92 (IL-2 2.5 ng/mL) [20] = assay: as above; settings: 72 h
YT (IL-2 2.5 ng/mL) [21] = assay: as above; settings: 72 h
[22] = tested on: normal primary NK cells, pool 1 (3 donors) (IL-2 2.5 ng/mL); assay: as above; settings: 72 h
NKL (IL-2 2.5 ng/mL) [23] = assay: as above; settings: 72 h
NK-YS (IL-2 2.5 ng/mL) [24] = assay: as above; settings: 72 h
[25] = tested on: normal primary NK cells, pool 3 (3 donors) (IL-2 2.5 ng/mL); assay: as above; settings: 72 h
[26] = tested on: normal primary NK cells, pool 1 (3 donors), resting (IL-2 0 ng/mL); assay: as above; settings: 72 h
KHYG-1 (IL-2 2.5 ng/mL) [27] = assay: as above; settings: 72 h
[28] = tested on: normal NK cells expanded with K562-aAPC; assay: drug sensitivity score (DSS) (DSS units); higher = more sensitive; extreme values may be limits of the assay; settings: 72 h; IL-2 2.5 ng/mL
Method: as §1

O=S(=O)(c1cccc2cnccc12)N1CCCNCC1 [Fasudil] (max concentration tested 50000 nM)
percent inhibition of viability [%]
Settings	5 nM	50 nM	500 nM	5000 nM	50000 nM
DERL-7 (IL-2 2.5 ng/mL) [15]	-1.59	2.77	2.04	10.3	31.5
IMC-1 (IL-2 20 ng/mL) [16]	-3.69	1.08	-1.1	-3.21	-0.77
KAI3 (IL-2 2.5 ng/mL) [17]	-9.98	-12.1	-8.77	16.4	52.6
KHYG-1 (IL-2 2.5 ng/mL) [27]	-1.86	-2.81	-0.3	5.17	30.2
NK-92 (IL-2 2.5 ng/mL) [20]	-0.3	-5	-7.96	16.5	50
NK-YS (IL-2 2.5 ng/mL) [24]	-10.2	-12.7	-8.89	-1.5	17.1
NKL (IL-2 2.5 ng/mL) [23]	-10.3	-10.6	-5.56	1.78	24
SNK-6 (IL-2 2.5 ng/mL) [18]	-14.4	-9.67	-10.4	-26.7	19.7
YT (IL-2 2.5 ng/mL) [21]	-0.42	-0.99	2.43	9.94	50.6
[1]	-7	-8.84	-5.88	5.82	20.5
[19]	-9.61	4.29	4.21	9.95	82.7
[22]	-14.3	13.1	11.4	15.1	52.8
[25]	-8.61	9.41	3.96	-0.18	54.6
[26]	-18	5.15	-1.43	5.51	16.6

Settings	drug sensitivity score
DERL-7 (IL-2 2.5 ng/mL) [2]	2.67
IMC-1 (IL-2 20 ng/mL) [3]	0
KAI3 (IL-2 2.5 ng/mL) [4]	5.22
KHYG-1 (IL-2 2.5 ng/mL) [14]	2.15
NK-92 (IL-2 2.5 ng/mL) [7]	5.03
NK-YS (IL-2 2.5 ng/mL) [11]	0.3
NKL (IL-2 2.5 ng/mL) [10]	1.12
SNK-6 (IL-2 2.5 ng/mL) [5]	0.22
YT (IL-2 2.5 ng/mL) [8]	4.32
[6]	6.25
[9]	4.47
[12]	2.91
[13]	0.88
[28]	1.35

CC(C)(C)NC(=O)[C@H]1CC[C@H]2[C@@H]3CC[C@H]4NC(=O)C=C[C@]4(C)[C@H]3CC[C@]12C [Finasteride] (max concentration tested 10000 nM)
percent inhibition of viability [%]
Settings	1 nM	10 nM	100 nM	1000 nM	10000 nM
DERL-7 (IL-2 2.5 ng/mL) [15]	8.57	-6.64	5.89	-0.19	12.4
IMC-1 (IL-2 20 ng/mL) [16]	-6.06	-4.68	-1.34	2.37	27.1
KAI3 (IL-2 2.5 ng/mL) [17]	2.67	5.19	10.5	4.13	28.6
KHYG-1 (IL-2 2.5 ng/mL) [27]	-6.44	-5.37	3.63	2.04	10.9
NK-92 (IL-2 2.5 ng/mL) [20]	-2.71	-10.9	0.46	4.24	44.5
NK-YS (IL-2 2.5 ng/mL) [24]	-10.4	-1.41	-5.34	5.54	10.5
NKL (IL-2 2.5 ng/mL) [23]	5.94	-9.09	10.7	13	34.2
SNK-6 (IL-2 2.5 ng/mL) [18]	-3.02	-28.7	-17.3	-25.3	-11.3
YT (IL-2 2.5 ng/mL) [21]	4.41	-7.13	5.2	-3.12	30.2
[1]	-10.9	-11.1	-5.78	1.82	14.1
[19]	-2.14	-1.25	3.98	-1.8	12.4
[22]	-9.53	1.23	3.62	-7.18	3.28
[25]	1.72	-0.73	15.2	-6.78	1.67
[26]	1.92	14	3.85	6.98	20.4

Settings	drug sensitivity score
DERL-7 (IL-2 2.5 ng/mL) [2]	0.06
IMC-1 (IL-2 20 ng/mL) [3]	1.45
KAI3 (IL-2 2.5 ng/mL) [4]	1.87
KHYG-1 (IL-2 2.5 ng/mL) [14]	0.04
NK-92 (IL-2 2.5 ng/mL) [7]	2.97
NK-YS (IL-2 2.5 ng/mL) [11]	0.05
NKL (IL-2 2.5 ng/mL) [10]	2.88
SNK-6 (IL-2 2.5 ng/mL) [5]	0
YT (IL-2 2.5 ng/mL) [8]	1.11
[6]	0.04
[9]	0
[12]	0
[13]	0.89
[28]	0.32
